Source: PMC6892276 (European Journal of Pharmaceutical Sciences, 2019)
One block for each molecule: values may come before it.

Tests used:
[1] = Metabolite profiling in mouse hepatocytes and MLM; type: in vitro ADME; details: for % total metabolite response: MLM 1 mg/ml, 1 μM; for maximal metabolite abundance, % of T0 parent (LC-MS/MS response): mouse hepatocytes and MLM; for % T0 parent response, minor metabolites: mouse, matrix not stated
Experimental: (§1) Suspended hepatocyte incubations for the purposes of metabolite identification and CLint determination were conducted as described by [Wood et al. (2018)] in round-bottomed 350 μl 96-well polypropylene plates on a PHMP thermoshaker (Grant Instruments (Cambridge) Ltd. (Shepreth, UK)) at 37 °C and 900 rpm. […] Individual wells were quenched with 120 μl of methanol containing internal standard over a time course (Table 1) and an aliquot removed for analysis.
(§2) Prior to initiation of the reaction by the addition of NADPH (final concentration 1 mM), an aliquot was removed from each incubation and quenched in ice cold methanol containing internal standard (referred to as T0). NADPH was subsequently added to this solution for matrix matching. The remaining reaction (with addition of NADPH) was allowed to proceed for 60 min. At 0.5, 5, 15, 30 and 60 min aliquots were sampled and quenched as above. Incubations were conducted in singlicate; control incubations (substituting PBS for NADPH) were conducted simultaneously.
(§3) For the purpose of metabolite identification, samples were analysed using a Dionex Ultimate 3000 UHPLC system coupled to a ThermoScientific Q Exactive Plus orbitrap mass spectrometer (Thermo Fisher Scientific Inc., Waltham, USA). Separation of analytes was achieved using an Acquity UPLC HSS T3 column (1.8 μm, 100 × 2.1 mm) (Waters, Elstree, UK) at a temperature of 50 °C and a binary mobile phase gradient at a flow rate of 0.4 ml/min. Initial conditions comprised 10% solvent A (0.1% formic acid in water), 90% solvent B (methanol); this was ramped to 95% A at 12 min, immediately returned to initial conditions and held for the remaining 3 min of the method. The UV absorbance of samples at 230 nm and 260 nm was monitored using a Dionex Ultimate 3000 diode array detector. Sample analysis was by electrospray atmospheric pressure ionization combined with full scan acquisition in positive ion mode over a mass range 80–1200 m/z. The capillary voltage was 3.5 kV; desolvation gas and capillary temperatures were 450 °C and 275 °C respectively; sheath, aux and sweep gas flow rates were 55, 15 and 3 respectively. Full MS/dd-MS^2 (full MS scan followed by data dependent MS/MS) and Full MS/AIF (full MS scan followed by all ion fragmentation) workflows were used in combination.
(§4) Identification of metabolites and elucidation of their proposed structures was undertaken with the aid of the software Compound Discoverer (v2.0.0.303, Thermo Fisher Scientific Inc., Waltham, USA). RAW data files containing accurate mass data and fragmentation spectra generated in the acquisition software Chromeleon (v7.2 SR3 (7553), Thermo Fisher Scientific Inc., Waltham, USA) were input into Compound Discoverer and processed using the targeted workflow described in Fig. 1 of the Appendix. The final time point of a parallel incubation of a different compound was used as a sample blank and any chromatographic peaks identified with the same m/z and retention time as in this sample were marked as background compounds and therefore not considered as potential metabolites. The Compound Discoverer application combines accurate mass data, isotope pattern matching and predicted biotransformations based on the parent compound's structure to generate a series of expected and unexpected compounds or metabolites. These were manually filtered using a typical criteria of peak area greater than or equal to 5000 counts per sec; compound identified in samples of at least three time points and peak area ratio of compound in Tx relative to T0 greater than or equal to 2, where Tx represents any given time point. […] The fragmentation spectra of these analytes were compared to those of the parent to facilitate structural interpretation of biotransformations. […]

[2] = biological target: T1, FLT3-ITD (Homo sapiens, UniProt P36888, ITD); assay: KINOMEscan Kd determination against FLT3-ITD; type: binding; details: 11-point 3-fold dilution series, top concentration 5 μM
T1 sequence (P36888 564-993): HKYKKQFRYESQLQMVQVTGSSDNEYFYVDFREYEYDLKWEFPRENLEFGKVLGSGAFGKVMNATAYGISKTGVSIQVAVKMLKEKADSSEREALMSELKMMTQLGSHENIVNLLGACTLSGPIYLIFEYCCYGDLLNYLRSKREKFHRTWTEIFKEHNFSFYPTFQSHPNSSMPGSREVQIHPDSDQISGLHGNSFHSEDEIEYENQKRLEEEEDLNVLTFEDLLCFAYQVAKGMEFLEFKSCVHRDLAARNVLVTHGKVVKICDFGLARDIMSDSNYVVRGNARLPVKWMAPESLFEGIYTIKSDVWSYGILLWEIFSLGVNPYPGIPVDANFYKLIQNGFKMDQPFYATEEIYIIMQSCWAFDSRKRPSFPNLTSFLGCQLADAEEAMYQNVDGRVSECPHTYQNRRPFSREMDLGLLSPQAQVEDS
Experimental: (§5) Kds were determined using an 11-point 3-fold compound dilution series (top concentration 5 μM) with three DMSO control points.

[3] = Metabolite profiling in human hepatocytes and HLM; type: in vitro ADME; details: for metabolite abundance, % of T0 parent (LC-MS response): HLM only
Experimental: as §1, §2, §3, §4

[4] = biological target: Aurora-B (Homo sapiens, UniProt Q96GD4); assay: KINOMEscan Kd determination against Aurora-B; type: binding; details: 11-point 3-fold dilution series, top concentration 5 μM
Experimental: as §5

[5] = biological target: T2, FLT3 (Homo sapiens, UniProt P36888); assay: KINOMEscan Kd determination against FLT3; type: binding; details: 11-point 3-fold dilution series, top concentration 5 μM
T2 sequence (P36888 27-993): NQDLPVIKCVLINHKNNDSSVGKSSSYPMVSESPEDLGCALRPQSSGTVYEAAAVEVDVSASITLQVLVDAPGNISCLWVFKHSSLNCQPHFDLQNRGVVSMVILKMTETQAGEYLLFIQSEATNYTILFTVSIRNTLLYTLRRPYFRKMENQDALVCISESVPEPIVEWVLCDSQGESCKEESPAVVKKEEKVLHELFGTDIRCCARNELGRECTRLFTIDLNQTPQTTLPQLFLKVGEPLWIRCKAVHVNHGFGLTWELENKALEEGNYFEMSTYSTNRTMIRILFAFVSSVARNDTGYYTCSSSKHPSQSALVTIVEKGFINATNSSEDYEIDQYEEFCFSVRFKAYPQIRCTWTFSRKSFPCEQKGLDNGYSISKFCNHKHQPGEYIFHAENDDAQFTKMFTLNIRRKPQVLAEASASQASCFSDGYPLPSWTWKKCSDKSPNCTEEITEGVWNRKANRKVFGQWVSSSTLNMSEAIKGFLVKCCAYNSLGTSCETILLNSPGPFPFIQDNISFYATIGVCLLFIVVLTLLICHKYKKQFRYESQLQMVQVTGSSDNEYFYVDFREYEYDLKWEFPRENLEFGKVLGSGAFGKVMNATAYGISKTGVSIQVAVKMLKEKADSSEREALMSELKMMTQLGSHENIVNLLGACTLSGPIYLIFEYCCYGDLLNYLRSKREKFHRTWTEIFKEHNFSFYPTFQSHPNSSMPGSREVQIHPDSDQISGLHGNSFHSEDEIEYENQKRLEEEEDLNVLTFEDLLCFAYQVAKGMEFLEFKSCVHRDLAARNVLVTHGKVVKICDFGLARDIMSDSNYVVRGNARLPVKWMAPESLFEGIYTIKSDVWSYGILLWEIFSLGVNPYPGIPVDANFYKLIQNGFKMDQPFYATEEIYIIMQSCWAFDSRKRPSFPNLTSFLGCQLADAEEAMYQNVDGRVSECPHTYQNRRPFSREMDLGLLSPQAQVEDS
Experimental: as §5

[6] = biological target: T3, Aurora-A (Homo sapiens, UniProt O14965); assay: KINOMEscan Kd determination against Aurora-A; type: binding; details: 11-point 3-fold dilution series, top concentration 5 μM
T3 sequence (O14965 1-403): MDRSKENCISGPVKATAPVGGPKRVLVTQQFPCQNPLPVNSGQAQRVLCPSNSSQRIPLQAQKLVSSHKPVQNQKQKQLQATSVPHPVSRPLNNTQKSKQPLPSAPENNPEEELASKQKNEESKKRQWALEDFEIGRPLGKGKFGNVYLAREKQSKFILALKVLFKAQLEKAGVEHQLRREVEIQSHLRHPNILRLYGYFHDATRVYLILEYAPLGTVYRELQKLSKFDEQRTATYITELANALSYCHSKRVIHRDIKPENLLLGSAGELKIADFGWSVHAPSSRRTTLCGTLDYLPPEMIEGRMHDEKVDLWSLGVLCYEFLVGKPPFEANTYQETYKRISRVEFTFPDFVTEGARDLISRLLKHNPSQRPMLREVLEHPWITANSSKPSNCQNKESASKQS
Experimental: as §5

[7] = Metabolite profiling in dog hepatocytes and DLM; type: in vitro ADME; details: dog hepatocytes and microsomes of both sexes
Experimental: as §1, §2
(§6) For the purpose of metabolite identification, samples were analysed using a Dionex Ultimate 3000 UHPLC system coupled to a ThermoScientific Q Exactive Plus orbitrap mass spectrometer (Thermo Fisher Scientific Inc., Waltham, USA). […] The UV absorbance of samples at 230 nm and 260 nm was monitored using a Dionex Ultimate 3000 diode array detector. […]

[8] = Metabolite profiling in rat hepatocytes and RLM; type: in vitro ADME
Experimental: as §1, §2, §6

Sequence of Aurora-B (Q96GD4 whole entry): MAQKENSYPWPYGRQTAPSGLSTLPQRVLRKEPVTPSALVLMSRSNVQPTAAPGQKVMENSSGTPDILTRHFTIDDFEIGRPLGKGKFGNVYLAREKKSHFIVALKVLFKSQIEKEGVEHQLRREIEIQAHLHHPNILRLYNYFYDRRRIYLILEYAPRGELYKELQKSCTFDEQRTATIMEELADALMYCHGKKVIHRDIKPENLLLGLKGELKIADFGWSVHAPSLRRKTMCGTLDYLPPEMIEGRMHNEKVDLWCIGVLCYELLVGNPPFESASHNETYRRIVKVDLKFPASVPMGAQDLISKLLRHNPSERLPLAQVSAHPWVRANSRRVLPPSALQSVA

Compound: Cc1nn(C)cc1-c1nc2c(N3CCNCC3)c(Cl)cnc2[nH]1 [Compound M1]
% total metabolite response ([1]; peak of initial increase): up to 7%
Kd [2]: 82 nM
metabolite abundance, % of parent LC-MS response at T0 ([3]; HLM, final sampled time point): 10.6%
metabolite abundance, % of parent LC-MS response at T0 ([3]; human hepatocytes and HLM): approximately 10%
metabolite abundance, % of parent LC-MS response at T0 ([3]; human hepatocytes, final sampled time point): 9.4%
Kd [4]: 130 nM
Kd [5]: 7.9 nM
Kd [6]: 33 nM

Compound: Cc1nn(C)cc1-c1nc2c(N3CC[N+]([O-])(Cc4ccc(Cl)cc4)CC3)c(Cl)cnc2[nH]1 [Compound M2]
% total metabolite response ([1]; within the first 30 min of incubation): > 25%
maximal metabolite abundance, % of T0 parent (LC-MS/MS response) [1]: > 10%
% total metabolite response ([3]; HLM 1 mg/ml, 1 μM, 60 min incubation): 3.5%

Compound: Cc1n[nH]cc1-c1nc2c(N3CCN(Cc4ccc(Cl)cc4)CC3)c(Cl)cnc2[nH]1 [Compound M3]
% T0 parent response, minor metabolites [1]: < 2%
metabolite abundance, % of parent LC-MS response at T0 ([3]; human hepatocytes and HLM): < 2%
maximal metabolite abundance, % of T0 parent (LC-MS/MS response) [7]: > 10%

Compound: Cc1nn(C)cc1-c1nc2c(NCCNCc3ccc(Cl)cc3)c(Cl)cnc2[nH]1 [Compound M4]
metabolite abundance, % of parent ([8]; RLM, at most): < 2%
maximal metabolite abundance, % of T0 parent (LC-MS/MS response) ([8]; rat hepatocytes): 8–10%
metabolite abundance, % of parent LC-MS response at T0 ([3]; human hepatocytes and HLM): < 2%

Compound: Cc1n[nH]cc1-c1nc2c(N3CCNCC3)c(Cl)cnc2[nH]1 [Compound M6]
% T0 parent response, minor metabolites [1]: < 2%
metabolite abundance, % of T0 parent (LC-MS response) [3]: < 2%

maximal metabolite abundance, % of T0 parent (LC-MS/MS response) [1]: > 10%
metabolite abundance, % of T0 parent (LC-MS response) [3]: < 2%
Compound: Cc1nn(C)cc1-c1nc2c(NCCN)c(Cl)cnc2[nH]1 [Compound M7]
